Experimental data: article PMC9230573 (Frontiers in Pharmacology, 2022)
Where a SMILES comes first, the peptide text is derived from it. Bridges are numbered along the chain shown (N, C = ends).

Legend:
[1] = target: human CaV2.2 (α1B, β3, α2δ1) (Homo sapiens, UniProt Q00975); assay: cell-based
[2] = target: rat α3β2 nAChR (Rattus norvegicus, UniProt P04757+P12390); assay: cell-based
Chain of rat α3β2 nAChR (P04757 26-499 limits assumed): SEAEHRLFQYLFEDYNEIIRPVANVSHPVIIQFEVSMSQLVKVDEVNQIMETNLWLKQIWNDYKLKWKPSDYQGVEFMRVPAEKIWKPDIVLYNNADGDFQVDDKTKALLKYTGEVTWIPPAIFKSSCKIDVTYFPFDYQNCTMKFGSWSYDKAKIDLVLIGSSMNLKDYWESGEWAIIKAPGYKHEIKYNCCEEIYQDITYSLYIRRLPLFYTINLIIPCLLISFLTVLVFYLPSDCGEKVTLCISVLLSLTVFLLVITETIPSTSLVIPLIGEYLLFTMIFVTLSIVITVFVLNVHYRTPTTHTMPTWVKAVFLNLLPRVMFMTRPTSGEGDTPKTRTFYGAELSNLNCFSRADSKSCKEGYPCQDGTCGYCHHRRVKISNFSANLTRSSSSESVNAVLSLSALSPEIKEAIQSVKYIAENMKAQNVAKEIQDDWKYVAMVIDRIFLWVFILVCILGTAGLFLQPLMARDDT
Chain of rat α3β2 nAChR (P12390 25-500 limits assumed): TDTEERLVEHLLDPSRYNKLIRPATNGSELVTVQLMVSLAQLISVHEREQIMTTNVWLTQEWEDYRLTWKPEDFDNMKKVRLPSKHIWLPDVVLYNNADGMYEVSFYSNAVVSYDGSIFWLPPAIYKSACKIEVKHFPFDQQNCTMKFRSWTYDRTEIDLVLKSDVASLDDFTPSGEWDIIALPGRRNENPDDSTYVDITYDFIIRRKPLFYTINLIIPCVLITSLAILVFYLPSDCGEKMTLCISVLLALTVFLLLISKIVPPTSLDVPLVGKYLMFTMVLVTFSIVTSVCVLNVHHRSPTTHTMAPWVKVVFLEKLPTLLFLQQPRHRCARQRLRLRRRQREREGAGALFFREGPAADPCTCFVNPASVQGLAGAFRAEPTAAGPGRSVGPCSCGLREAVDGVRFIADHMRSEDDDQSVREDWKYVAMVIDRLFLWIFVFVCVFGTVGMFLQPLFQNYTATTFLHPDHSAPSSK

Chain of human CaV2.2 (α1B, β3, α2δ1) (Q00975 whole entry, looked up): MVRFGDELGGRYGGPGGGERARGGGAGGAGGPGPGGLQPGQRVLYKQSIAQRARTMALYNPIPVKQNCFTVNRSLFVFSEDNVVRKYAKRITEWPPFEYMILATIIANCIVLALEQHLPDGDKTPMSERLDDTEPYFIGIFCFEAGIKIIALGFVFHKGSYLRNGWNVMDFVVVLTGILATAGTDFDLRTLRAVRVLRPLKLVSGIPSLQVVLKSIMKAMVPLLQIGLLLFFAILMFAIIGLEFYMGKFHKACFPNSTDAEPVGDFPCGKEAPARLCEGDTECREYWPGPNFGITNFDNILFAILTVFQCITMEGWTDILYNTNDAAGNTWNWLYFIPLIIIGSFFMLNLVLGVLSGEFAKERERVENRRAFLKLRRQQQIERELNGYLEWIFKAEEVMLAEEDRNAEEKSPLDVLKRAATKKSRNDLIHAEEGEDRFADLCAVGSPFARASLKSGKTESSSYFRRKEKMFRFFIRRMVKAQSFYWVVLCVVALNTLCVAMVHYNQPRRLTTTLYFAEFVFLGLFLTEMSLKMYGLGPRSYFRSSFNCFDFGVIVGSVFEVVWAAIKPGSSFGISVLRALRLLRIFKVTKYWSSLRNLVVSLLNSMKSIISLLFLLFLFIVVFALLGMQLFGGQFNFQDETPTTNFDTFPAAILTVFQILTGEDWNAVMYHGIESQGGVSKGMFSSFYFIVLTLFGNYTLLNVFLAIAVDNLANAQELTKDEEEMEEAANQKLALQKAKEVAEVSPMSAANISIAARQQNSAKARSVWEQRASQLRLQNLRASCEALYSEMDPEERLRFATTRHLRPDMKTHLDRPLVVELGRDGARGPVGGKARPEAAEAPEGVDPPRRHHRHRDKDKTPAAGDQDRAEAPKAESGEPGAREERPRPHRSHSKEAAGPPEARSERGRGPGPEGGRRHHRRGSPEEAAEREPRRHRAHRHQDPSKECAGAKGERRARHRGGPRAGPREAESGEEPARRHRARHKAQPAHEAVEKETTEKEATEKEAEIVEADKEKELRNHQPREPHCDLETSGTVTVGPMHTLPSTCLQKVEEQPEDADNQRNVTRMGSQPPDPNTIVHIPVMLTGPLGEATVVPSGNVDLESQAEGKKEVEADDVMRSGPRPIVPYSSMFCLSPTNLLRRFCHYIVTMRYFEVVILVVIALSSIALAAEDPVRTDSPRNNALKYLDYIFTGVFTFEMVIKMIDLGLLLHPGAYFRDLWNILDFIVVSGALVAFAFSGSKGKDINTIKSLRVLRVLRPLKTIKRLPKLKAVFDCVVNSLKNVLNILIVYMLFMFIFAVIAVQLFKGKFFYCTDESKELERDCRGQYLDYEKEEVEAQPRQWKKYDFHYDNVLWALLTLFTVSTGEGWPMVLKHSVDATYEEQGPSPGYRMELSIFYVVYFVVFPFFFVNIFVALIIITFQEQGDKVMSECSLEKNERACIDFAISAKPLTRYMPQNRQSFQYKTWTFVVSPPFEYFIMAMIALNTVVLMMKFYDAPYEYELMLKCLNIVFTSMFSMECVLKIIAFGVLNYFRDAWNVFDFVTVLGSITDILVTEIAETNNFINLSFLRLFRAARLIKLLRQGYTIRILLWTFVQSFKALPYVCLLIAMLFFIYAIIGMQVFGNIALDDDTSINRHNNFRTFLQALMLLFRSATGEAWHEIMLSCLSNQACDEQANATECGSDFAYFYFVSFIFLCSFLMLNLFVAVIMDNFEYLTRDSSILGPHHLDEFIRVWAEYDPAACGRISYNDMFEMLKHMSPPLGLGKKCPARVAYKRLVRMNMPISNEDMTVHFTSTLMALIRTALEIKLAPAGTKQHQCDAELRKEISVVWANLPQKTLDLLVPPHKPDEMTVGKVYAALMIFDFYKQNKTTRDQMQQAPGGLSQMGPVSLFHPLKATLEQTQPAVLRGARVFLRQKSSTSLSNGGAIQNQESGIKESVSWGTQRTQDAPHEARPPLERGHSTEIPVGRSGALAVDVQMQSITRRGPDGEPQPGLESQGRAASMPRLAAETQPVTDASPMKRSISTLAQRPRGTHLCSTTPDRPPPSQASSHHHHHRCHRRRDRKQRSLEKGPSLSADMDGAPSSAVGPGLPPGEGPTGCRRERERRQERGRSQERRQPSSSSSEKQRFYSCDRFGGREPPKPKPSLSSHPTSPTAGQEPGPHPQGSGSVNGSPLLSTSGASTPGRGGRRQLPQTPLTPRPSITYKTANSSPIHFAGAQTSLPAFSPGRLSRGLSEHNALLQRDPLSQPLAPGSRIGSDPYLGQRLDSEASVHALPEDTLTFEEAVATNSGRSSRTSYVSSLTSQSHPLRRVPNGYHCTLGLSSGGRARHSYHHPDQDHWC

SMILES: CC[C@H](C)[C@@H]1NC(=O)[C@@H]2CCCN2C(=O)[C@@H]2CSSC[C@H](NC(=O)[C@@H](N)CC(N)=O)C(=O)N[C@@H](CSSC[C@@H](C(N)=O)NC(=O)[C@H](CC(N)=O)NC(=O)[C@H](C)NC(=O)[C@H](CCCNC(=N)N)NC(=O)[C@H](CO)NC(=O)[C@H](Cc3ccc(O)cc3)NC(=O)[C@H](CC(=O)O)NC1=O)C(=O)N[C@@H](CCSC)C(=O)N[C@@H](Cc1ccccc1)C(=O)N[C@@H](Cc1c[nH]cn1)C(=O)N[C@@H]([C@@H](C)O)C(=O)N2 [Vt1.27[F15A]] (H-NCCMFHTCPIDYSRANC-NH2; disulfide 2-8, 3-17)
- inhibitory activity at CaV2.2 compared with Vt1.27 (in words; percent inhibition of IBa) [1]: equipotent to the native peptide
- IC50 [2]: > 10 µM
- change of potency at the α3β2 nAChR subtype compared with Vt1.27 (in words) [2]: a decrease in the potency

SMILES: CC[C@H](C)[C@@H]1NC(=O)[C@H](C)NC(=O)[C@@H]2CSSC[C@H](NC(=O)[C@@H](N)CC(N)=O)C(=O)N[C@@H](CSSC[C@@H](C(N)=O)NC(=O)[C@H](CC(N)=O)NC(=O)[C@H](Cc3ccccc3)NC(=O)[C@H](CCCNC(=N)N)NC(=O)[C@H](CO)NC(=O)[C@H](Cc3ccc(O)cc3)NC(=O)[C@H](CC(=O)O)NC1=O)C(=O)N[C@@H](CCSC)C(=O)N[C@@H](Cc1ccccc1)C(=O)N[C@@H](Cc1c[nH]cn1)C(=O)N[C@@H]([C@@H](C)O)C(=O)N2 [Vt1.27[P9A]] (H-NCCMFHTCAIDYSRFNC-NH2; disulfide 2-8, 3-17)
- inhibitory activity at CaV2.2 compared with Vt1.27 (in words; percent inhibition of IBa) [1]: decrease in inhibitory activity
- Hillslope [2]: -0.763
- IC50 [2]: 9.4 µM
- change of potency at the α3β2 nAChR subtype compared with Vt1.27 (in words) [2]: a sharp decrease in activity

SMILES: CC[C@H](C)[C@@H]1NC(=O)[C@@H]2CCCN2C(=O)[C@@H]2CSSC[C@H](NC(=O)[C@@H](N)CC(N)=O)C(=O)N[C@@H](CSSC[C@@H](C(N)=O)NC(=O)[C@H](CC(N)=O)NC(=O)[C@H](Cc3ccccc3)NC(=O)[C@H](CCCNC(=N)N)NC(=O)[C@H](CO)NC(=O)[C@H](C)NC(=O)[C@H](CC(=O)O)NC1=O)C(=O)N[C@@H](CCSC)C(=O)N[C@@H](Cc1ccccc1)C(=O)N[C@@H](Cc1c[nH]cn1)C(=O)N[C@@H]([C@@H](C)O)C(=O)N2 [Vt1.27[Y12A]] (H-NCCMFHTCPIDASRFNC-NH2; disulfide 2-8, 3-17)
- Hillslope [2]: -1.577
- IC50 [2]: 2.54 µM
- change of potency at the α3β2 nAChR subtype compared with Vt1.27 (in words) [2]: a decrease in the potency

SMILES: CC[C@H](C)[C@@H]1NC(=O)[C@H](C)NC(=O)[C@@H]2CSSC[C@H](NC(=O)[C@@H](N)CC(N)=O)C(=O)N[C@@H](CSSC[C@@H](C(N)=O)NC(=O)[C@H](CC(N)=O)NC(=O)[C@H](Cc3ccccc3)NC(=O)[C@H](CCCNC(=N)N)NC(=O)[C@H](CO)NC(=O)[C@H](Cc3ccc(O)cc3)NC(=O)[C@H](CC(=O)O)NC1=O)C(=O)N[C@@H](CCSC)C(=O)N[C@@H](Cc1ccccc1)C(=O)N1CCC[C@H]1C(=O)N[C@@H]([C@@H](C)O)C(=O)N2 [Vt1.27[H6P、P9A]] (H-NCCMFPTCAIDYSRFNC-NH2; disulfide 2-8, 3-17)
- IC50 [2]: > 10 µM
- change of potency at the α3β2 nAChR subtype compared with Vt1.27 (in words) [2]: a significant loss of potency

SMILES: CC[C@H](C)[C@@H]1NC(=O)[C@@H]2CCCN2C(=O)[C@@H]2CSSC[C@H](NC(=O)[C@@H](N)CC(N)=O)C(=O)N[C@@H](CSSC[C@@H](C(N)=O)NC(=O)[C@H](CC(N)=O)NC(=O)[C@H](Cc3ccccc3)NC(=O)[C@H](C)NC(=O)[C@H](CO)NC(=O)[C@H](Cc3ccc(O)cc3)NC(=O)[C@H](CC(=O)O)NC1=O)C(=O)N[C@@H](CCSC)C(=O)N[C@@H](Cc1ccccc1)C(=O)N[C@@H](Cc1c[nH]cn1)C(=O)N[C@@H]([C@@H](C)O)C(=O)N2 [Vt1.27[R14A]] (H-NCCMFHTCPIDYSAFNC-NH2; disulfide 2-8, 3-17)
- Hillslope [2]: -0.871
- IC50 [2]: 2.86 µM
- change of potency at the α3β2 nAChR subtype compared with Vt1.27 (in words) [2]: a decrease in the potency
